In patent publication US12329967B2, “State-dependent peripheral neuromodulation to treat bladder dysfunction” (Duke University, priority 2015, dated 2025):

Test system: bladder
Assay: in vivo cystometry (CMG) in urethane anesthetized rats, PGE2 model of bladder dysfunction
Set-up: species or system female Wistar rats
Conditions: intravesical infusion of PGE2 (100 μM), no stimulation, vs control rats (FIG. 5A)
Protocol: In the following examples, an accepted animal model of bladder dysfunction was used: the PGE2 (prostoglandin E2) model, in which installation of PGE2 into rats induces a hyperactive bladder response. In addition, a cat model of bladder dysfunction was used. […] Acute experiments were conducted in urethane (1.2 g/kg, SC) anesthetized female Wistar rats using in vivo cystometry (CMG). A PE-90 catheter was placed to measure bladder pressure and for intravesical infusion of saline and PGE2 (100 μM). Bipolar electrodes were placed on the external urethral sphincter (EUS) to measure electromyographic (EMG) activity and a bipolar nerve cuff electrode was placed on the sensory branch of the pudendal nerve for stimulation. In a subset of trials after PGE2 infusion, electrical stimulation of the sensory branch of the pudendal nerve was delivered at different amplitudes (0.5-10× EUS reflex threshold, T) and frequencies (1-50 Hz). T may be determined as follows: a low frequency electrical signal, typically 1 Hz, is applied and the intensity of stimulation is increased (either by increasing the voltage or the current of the signal, preferably the current) until the pudendal nerve stimulation pulse produces a reflex EMG response in the EUS.

For `CCCCC[C@H](O)/C=C/[C@H]1[C@H](O)CC(=O)[C@@H]1C/C=C\CCCC(=O)O` [PGE2, prostoglandin E2], the “changes in bladder capacity” value was “reduces bladder capacity”.
